Reference: PubChem BioAssay (NCI)
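Protocol summary: plate cells (96-well), add compound at 5 concentrations, incubate 48 h, interpolate endpoints linearly. GI50 marks 50% less growth. At the TGI there is no net growth.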

Columns and labels:
Experiment in all cases: NCI anticancer screen, dose series, 48 h
[1] = system: 786-0 renal
[2] = system: A498 renal
[3] = system: A549 NSCLC
[4] = system: ACHN renal
[5] = system: BT-549 breast
[6] = system: CAKI-1 renal
[7] = system: CCRF-CEM leukemia
[8] = system: COLO 205 colon
[9] = system: DU-145 prostate
[10] = system: EKVX NSCLC
[11] = system: HCC-2998 colon
[12] = system: HCT-116 colon
[13] = system: HCT-15 colon
[14] = system: HL-60(TB) leukemia
[15] = system: HOP-62 NSCLC
[16] = system: HOP-92 NSCLC
[17] = system: HS 578T breast
[18] = system: HT29 colon
[19] = system: IGROV1 ovarian
[20] = system: K-562 leukemia
[21] = system: KM12 colon
[22] = system: LOX IMVI melanoma
[23] = system: M14 melanoma
[24] = system: MALME-3M melanoma
[25] = system: MCF7 breast
[26] = system: MDA-MB-231 breast
[27] = system: MDA-MB-435
[28] = system: MOLT-4 leukemia
[29] = system: NCI-H226 lung
[30] = system: NCI-H23 lung
[31] = system: NCI-H460 lung
[32] = system: NCI-H522 lung
[33] = system: NCI/ADR-RES ovarian
[34] = system: OVCAR-3 ovarian
[35] = system: OVCAR-4 ovarian
[36] = system: OVCAR-5 ovarian
[37] = system: OVCAR-8 ovarian
[38] = system: PC-3 prostate
[39] = system: RXF 393 renal
[40] = system: SF-268 CNS
[41] = system: SF-295 CNS
[42] = system: SF-539 CNS
[43] = system: SK-MEL-2 melanoma
[44] = system: SK-MEL-28 melanoma
[45] = system: SK-MEL-5 melanoma
[46] = system: SK-OV-3 ovarian
[47] = system: SN12C renal
[48] = system: SNB-19 CNS
[49] = system: SNB-75 CNS
[50] = system: SR leukemia
[51] = system: SW-620 colon
[52] = system: T-47D breast
[53] = system: TK-10 renal
[54] = system: U251 CNS
[55] = system: UACC-257 melanoma
[56] = system: UACC-62 melanoma
[57] = system: UO-31 renal
[58] = system: RPMI-8226 leukemia

With O=C(CN(C1CCCCC1)C1CCCCC1)Nc1ccc(S(=O)(=O)c2ccc(NC(=O)CN(C3CCCCC3)C3CCCCC3)cc2)cc1 the GI50 [1] was 941 nM, the TGI [1] was 2390 nM and the GI50 [2] was 11400 nM. The TGI [2] was 27900 nM, the GI50 [3] was 1330 nM and the TGI [3] was 3260 nM. The GI50 [4] was 1170 nM, the TGI [4] was 2400 nM and the GI50 [5] was 506 nM. For the same compound, the TGI [5] was 1910 nM, the GI50 [6] was 1140 nM and the TGI [6] was 2350 nM. It also gave a GI50 [7] of 222 nM, a TGI [7] of 1280 nM and a GI50 [8] of 280 nM. The TGI [8] was 841 nM, the GI50 [9] was 1140 nM and the TGI [9] was 2380 nM. It also gave a GI50 [10] of 1410 nM, a TGI [10] of 2880 nM and a GI50 [11] of 1700 nM. It also gave a TGI [11] of 3220 nM, a GI50 [12] of 158 nM and a TGI [12] of 396 nM. The GI50 [13] was 181 nM, the TGI [13] was 568 nM and the GI50 [14] was 1020 nM. For the same compound, the TGI [14] was 3230 nM, the GI50 [15] was 1200 nM and the TGI [15] was 3560 nM. It also gave a GI50 [16] of 1390 nM, a TGI [16] of 2930 nM and a GI50 [17] of 1030 nM. For the same compound, the TGI [17] was 6900 nM, the GI50 [18] was 390 nM and the TGI [18] was 1440 nM. For the same compound, the GI50 [19] was 421 nM, the TGI [19] was 1600 nM and the GI50 [20] was 277 nM. For the same compound, the TGI [20] was 1380 nM, the GI50 [21] was 585 nM and the TGI [21] was 2050 nM. For the same compound, the GI50 [22] was 239 nM, the TGI [22] was 845 nM and the GI50 [23] was 373 nM. For the same compound, the TGI [23] was 1690 nM, the GI50 [24] was 334 nM and the TGI [24] was 1300 nM. It also gave a GI50 [25] of 299 nM, a TGI [25] of 1620 nM and a GI50 [26] of 432 nM. The TGI [26] was 1630 nM, the GI50 [27] was 873 nM and the TGI [27] was 2350 nM. It also gave a GI50 [28] of 293 nM, a TGI [28] of 2700 nM and a GI50 [29] of 2060 nM. It also gave a TGI [29] of 9430 nM, a GI50 [30] of 1020 nM and a TGI [30] of 2610 nM. For the same compound, the GI50 [31] was 382 nM, the TGI [31] was 1630 nM and the GI50 [32] was 394 nM. It also gave a TGI [32] of 1240 nM, a GI50 [33] of 890 nM and a TGI [33] of 6310 nM. The GI50 [34] was 279 nM, the TGI [34] was 1020 nM and the GI50 [35] was 942 nM. For the same compound, the TGI [35] was 2580 nM, the GI50 [36] was 1130 nM and the TGI [36] was 2520 nM. It also gave a GI50 [37] of 701 nM, a TGI [37] of 3710 nM and a GI50 [38] of 985 nM. The TGI [38] was 2350 nM, the GI50 [39] was 817 nM and the TGI [39] was 2310 nM. For the same compound, the GI50 [40] was 337 nM, the TGI [40] was 1600 nM and the GI50 [41] was 1500 nM. It also gave a TGI [41] of 2960 nM, a GI50 [42] of 370 nM and a TGI [42] of 1460 nM. For the same compound, the GI50 [43] was 1350 nM, the TGI [43] was 3500 nM and the GI50 [44] was 1210 nM. It also gave a TGI [44] of 2820 nM, a GI50 [45] of 395 nM and a TGI [45] of 1650 nM. It also gave a GI50 [46] of 8640 nM, a TGI [46] of 21600 nM and a GI50 [47] of 1330 nM. For the same compound, the TGI [47] was 2730 nM, the GI50 [48] was 656 nM and the TGI [48] was 2180 nM. The GI50 [49] was 2270 nM, the TGI [49] was 9320 nM and the GI50 [50] was 224 nM. The TGI [50] was 1520 nM, the GI50 [51] was 228 nM and the TGI [51] was 650 nM. For the same compound, the GI50 [52] was 1150 nM, the TGI [52] was 3740 nM and the GI50 [53] was 2240 nM. For the same compound, the TGI [53] was 6030 nM, the GI50 [54] was 234 nM and the TGI [54] was 742 nM. The GI50 [55] was 1370 nM, the TGI [55] was 3660 nM and the GI50 [56] was 595 nM. The TGI [56] was 2050 nM, the GI50 [57] was 1240 nM and the TGI [57] was 2560 nM.
With Nc1nc(Nc2ccccc2)c2ncn(Cc3cc4c(cc3Br)OCO4)c2n1 the GI50 [1] was 65.9 nM, the TGI [1] was 16200 nM and the GI50 [2] was 54.6 nM. It also gave a TGI [2] of 29700 nM, a GI50 [3] of 49.1 nM and a TGI [3] of 11500 nM. The GI50 [4] was 79.9 nM, the TGI [4] was 30400 nM and the GI50 [5] was 51.1 nM. It also gave a TGI [5] of 2330 nM, a GI50 [6] of 135 nM and a TGI [6] of over 55200 nM. It also gave a GI50 [7] of 43.1 nM, a GI50 [8] of 71.6 nM and a TGI [8] of 375 nM. It also gave a GI50 [9] of 184 nM, a TGI [9] of 13700 nM and a GI50 [10] of under 27.6 nM. The TGI [10] was over 100000 nM, the GI50 [11] was 205 nM and the TGI [11] was over 32700 nM. For the same compound, the GI50 [12] was 46 nM, the TGI [12] was 24900 nM and the GI50 [13] was 41.6 nM. For the same compound, the TGI [13] was 5480 nM, the GI50 [14] was 35.8 nM and the TGI [14] was 1260 nM. The GI50 [15] was 67.5 nM, the TGI [15] was 7650 nM and the GI50 [16] was 65.1 nM. For the same compound, the TGI [16] was 20700 nM, the GI50 [17] was 75 nM and the TGI [17] was over 94900 nM. The GI50 [18] was 48.4 nM, the TGI [18] was 706 nM and the GI50 [19] was 105 nM. For the same compound, the TGI [19] was 60400 nM, the GI50 [20] was 41.5 nM and the TGI [20] was over 39900 nM. For the same compound, the GI50 [21] was 41.8 nM, the TGI [21] was 21000 nM and the GI50 [22] was 56.3 nM. For the same compound, the TGI [22] was over 100000 nM, the GI50 [25] was under 10 nM and the TGI [25] was 31900 nM. It also gave a GI50 [26] of 49.7 nM, a TGI [26] of over 51900 nM and a GI50 [27] of 30.1 nM. The TGI [27] was 129 nM, the GI50 [28] was 196 nM and the TGI [28] was over 100000 nM. The GI50 [29] was 777 nM, the TGI [29] was 31500 nM and the GI50 [30] was 18.7 nM. The TGI [30] was over 100000 nM, the GI50 [31] was 30.4 nM and the TGI [31] was 17600 nM. For the same compound, the GI50 [32] was 31.6 nM, the TGI [32] was 207 nM and the GI50 [33] was 56.5 nM. For the same compound, the TGI [33] was over 37500 nM, the GI50 [34] was 32.6 nM and the TGI [34] was 237 nM. The GI50 [35] was 326 nM, the TGI [35] was 55100 nM and the GI50 [36] was 282 nM. It also gave a TGI [36] of over 80300 nM, a GI50 [37] of 170 nM and a TGI [37] of 832 nM. The GI50 [38] was 80.1 nM, the TGI [38] was 46900 nM and the GI50 [58] was 49.7 nM. The TGI [58] was over 52700 nM, the GI50 [39] was 60.2 nM and the TGI [39] was 8650 nM. It also gave a GI50 [40] of 128 nM, a TGI [40] of 45300 nM and a GI50 [41] of 37 nM. The TGI [41] was 7270 nM, the GI50 [42] was 39.4 nM and the TGI [42] was 510 nM. It also gave a GI50 [43] of 54.6 nM, a TGI [43] of 42300 nM and a GI50 [44] of 524 nM. It also gave a TGI [44] of 36200 nM, a GI50 [45] of 48.5 nM and a TGI [45] of 278 nM. For the same compound, the GI50 [46] was 37.3 nM, the TGI [46] was 2360 nM and the GI50 [47] was 407 nM. For the same compound, the TGI [47] was over 100000 nM, the GI50 [48] was 68.6 nM and the TGI [48] was 22300 nM. The GI50 [49] was 62.3 nM, the TGI [49] was 25300 nM and the GI50 [50] was 37.1 nM. For the same compound, the TGI [50] was over 100000 nM, the GI50 [51] was 47.1 nM and the TGI [51] was over 100000 nM. It also gave a GI50 [52] of under 10 nM, a TGI [52] of 21400 nM and a GI50 [53] of 114 nM. The TGI [53] was 18100 nM, the GI50 [54] was 120 nM and the TGI [54] was 1450 nM. The GI50 [56] was 53.7 nM, the TGI [56] was 28400 nM and the GI50 [57] was 129 nM. It also gave a TGI [57] of over 100000 nM.
